Measurements reported in US20230331739A1, “INDOLO HEPTAMYL OXIME ANALOG CRYSTAL AS PARP INHIBITOR AND METHOD FOR PREPARING SAME” (CHIA TAI TIANQING PHARMACEUTICAL GROUP CO., LTD., priority 2020, published 2023).
pIC50: −log10 of the molar value.

What was measured:
[1] = tested on: MDA-MB-436 cells with BRCA1 mutation; test: Anti-proliferation study on MDA-MB-436 cells (CellTiter-Glo); format: cell-based; settings: Homo sapiens, MDA-MB-436, 168 h; 7 days incubation
Description: Materials: test compounds; RPMI-1640 medium; fetal bovine serum; penicillin/streptomycin antibiotic; MDA-MB-436 cells; Envision Multimode Plate Reader (PerkinElmer). MDA-MB-436 cells were seeded in a white 96-well plate by adding 80 μL of cell suspension (containing 3000 MDA-MB-436 cells) to each well. The cell plate was incubated in a CO2 incubator overnight. The test compounds were serially 5-fold diluted to the 8th concentration with a multichannel pipette, i.e., from 2 mM to 26 nM, in duplicate. 78 μL of medium was added to an intermediate plate, and the serially diluted compound was transferred to the intermediate plate at 2 μL per well. After being mixed well, the mixture was transferred to the cell plate at 20 μL per well. […] Another cell plate was provided for reading signal values on the day of compound addition and these signal values were used as Max values in data analysis. Promega CellTiter-Glo was added to the cell plate at 25 μL per well and the luminescence signals were stabilized by incubation for 10 min at room temperature. Readings were taken using a PerkinElmer Envision Multimode Plate Reader. […]

CYP2C9 = CYP2C9 (Homo sapiens (Human), UniProt P11712); test: Inhibition against cytochrome P450 isoenzymes, CYP2C9; format: in vitro ADME; settings: human liver microsomes
Description: (§1) The inhibition of the test compound against different subtypes of the human cytochrome P450 isoenzyme was determined. The test compound, a standard inhibitor (100×final concentration) and a mixed substrate working solution were prepared; the microsomes frozen in a refrigerator at −80° C. were taken out and thawed. […]

[2] = Metabolic stability in liver microsomes, human; format: in vitro ADME; settings: 1 μM, 0.5 mg/mL
Description: Objective: To test the metabolic stability of the test compound in liver microsomes of three species.
Procedures: 1 μM test compound and microsomes (0.5 mg/mL) were incubated at 37° C. in the presence of an NADPH regeneration system. Positive controls were testosterone ([…]), propylamine propiophenone (2D6 substrate) and diclofenac (2C9 substrate). At 37° C., positive controls were incubated with microsomes (0.5 mg/mL) in the presence of an NADPH regeneration system. The reaction was stopped by direct mixing of the sample with cold acetonitrile containing an internal standard at various time points (0, 5, 10, 20, 30 and 60 min). The compound and microsomes were incubated for 60 min in the absence of an NADPH regeneration system. One replicate (n=1) was set at each time point. The samples were analyzed by LC/MS/MS; the concentration of the compound was characterized by the ratio of the analyte peak area to the internal standard peak area.

CYP3A4-M = CYP3A4-M (Homo sapiens (Human), UniProt P08684); test: Inhibition against cytochrome P450 isoenzymes, CYP3A4-M; format: in vitro ADME; settings: human liver microsomes
Description: as §1

[3] = Protein binding rate in plasma (equilibrium dialysis), CD-1 mouse; format: in vitro ADME; settings: CD-1 mouse plasma, 4 h dialysis
Description: The protein binding rates of the compound disclosed herein in plasma of human, CD-1 mice and SD rats were determined. 796 μL of blank plasma was taken from human, CD-1 mice or SD rats, and 4 μL of test compound working solution (400 μM) or warfarin working solution (400 μM) was added to achieve a final concentration of 2 μM of both the test compound and the warfarin in the plasma sample. The samples were mixed well. The final concentration of organic phase DMSO was 0.5%; 50 μL of test compound and warfarin plasma sample was pipetted into a sample receiving plate (in triplicate), and a corresponding volume of blank plasma or buffer was immediately added such that the final volume in each sample well was 100 μL. The volume ratio of plasma to dialysis buffer was 1:1. […] All samples were subjected to LC/MS analysis after protein precipitation, and the protein binding rates and the recovery rates were calculated by the following formulas: protein unbinding rate (%)=100× drug concentration passing through dialysis membrane/drug concentration not passing through dialysate; protein binding rate (%)=100−protein unbinding rate (%); recovery rate (%)=100×(drug concentration passing through dialysis membrane+drug concentration not passing through dialysate)/total drug concentration before dialysis.

CYP1A2 = CYP1A2 (Homo sapiens (Human), UniProt P05177); test: Inhibition against cytochrome P450 isoenzymes, CYP1A2; format: in vitro ADME; settings: human liver microsomes
Description: as §1

Chain of CYP2C9 (P11712 whole entry): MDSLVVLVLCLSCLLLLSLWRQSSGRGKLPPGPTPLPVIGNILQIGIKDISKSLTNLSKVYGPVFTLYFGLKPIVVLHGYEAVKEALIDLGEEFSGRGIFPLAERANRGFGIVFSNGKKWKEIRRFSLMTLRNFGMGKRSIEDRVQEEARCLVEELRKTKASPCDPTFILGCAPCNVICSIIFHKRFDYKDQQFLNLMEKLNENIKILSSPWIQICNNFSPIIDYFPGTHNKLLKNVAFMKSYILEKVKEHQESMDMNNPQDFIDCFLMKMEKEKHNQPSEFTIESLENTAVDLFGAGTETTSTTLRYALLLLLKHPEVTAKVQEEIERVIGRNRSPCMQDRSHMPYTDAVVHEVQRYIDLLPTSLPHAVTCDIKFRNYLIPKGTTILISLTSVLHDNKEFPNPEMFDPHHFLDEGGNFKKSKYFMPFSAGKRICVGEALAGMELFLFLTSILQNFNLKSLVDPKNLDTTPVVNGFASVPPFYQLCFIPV
Chain of CYP1A2 (P05177 whole entry): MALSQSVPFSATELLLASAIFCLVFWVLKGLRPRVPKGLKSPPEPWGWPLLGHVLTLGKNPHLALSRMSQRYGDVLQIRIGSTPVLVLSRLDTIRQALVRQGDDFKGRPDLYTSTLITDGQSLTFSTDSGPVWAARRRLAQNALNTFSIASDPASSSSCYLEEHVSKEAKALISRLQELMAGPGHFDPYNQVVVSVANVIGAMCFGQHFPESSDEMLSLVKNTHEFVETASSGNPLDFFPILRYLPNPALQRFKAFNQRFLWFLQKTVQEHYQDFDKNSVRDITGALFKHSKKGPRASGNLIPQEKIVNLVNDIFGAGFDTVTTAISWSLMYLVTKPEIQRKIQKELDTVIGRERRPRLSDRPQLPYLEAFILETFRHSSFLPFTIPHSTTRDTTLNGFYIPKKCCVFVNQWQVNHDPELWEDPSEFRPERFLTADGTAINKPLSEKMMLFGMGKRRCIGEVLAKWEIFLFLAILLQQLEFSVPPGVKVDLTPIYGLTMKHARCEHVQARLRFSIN
Chain of CYP3A4-M (P08684 whole entry): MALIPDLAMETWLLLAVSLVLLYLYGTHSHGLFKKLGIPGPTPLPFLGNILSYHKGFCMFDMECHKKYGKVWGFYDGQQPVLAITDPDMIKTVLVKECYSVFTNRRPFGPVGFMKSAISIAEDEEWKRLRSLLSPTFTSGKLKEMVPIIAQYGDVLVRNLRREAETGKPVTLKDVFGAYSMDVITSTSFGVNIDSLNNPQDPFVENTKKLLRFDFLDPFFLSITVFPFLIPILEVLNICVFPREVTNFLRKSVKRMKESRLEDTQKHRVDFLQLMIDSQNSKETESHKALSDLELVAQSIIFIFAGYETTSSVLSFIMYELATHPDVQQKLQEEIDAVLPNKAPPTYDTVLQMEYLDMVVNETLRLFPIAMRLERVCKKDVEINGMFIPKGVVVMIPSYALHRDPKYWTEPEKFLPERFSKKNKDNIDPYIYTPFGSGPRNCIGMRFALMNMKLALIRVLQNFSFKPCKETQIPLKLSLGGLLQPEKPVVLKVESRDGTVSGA

## C[C@]1(c2ccc(-c3[nH]c4cc(F)cc5c4c3CONC5=O)cc2)CCCN1 [Compound 1]
[1]
  pIC50: 7.91
CYP2C9
  IC50: > 50 µM
[2]
  Residual content after 60 min of incubation: 35.9%
CYP3A4-M
  IC50: 32.9 µM
[3]
  fraction unbound at 4 h, 2 μM: 0.104
CYP1A2
  IC50: > 50 µM
